For assay [1], the system named is P388. As to the kind of experiment: Cytotoxicity against mouse P388 cells. Format: functional, cell-based.
Assay [2] has as its system L1210. As to the kind of experiment: Cytotoxicity against mouse L1210 cells. The class given is functional, cell-based.
Assay [3] deals with CHO. Description: Cytotoxicity against MDR1 gene transfected CHO cells. The class given is ADME, cell-based, Cavia porcellus. Conditions: Cricetulus griseus.
Assay [4] relates to P388. As to the kind of experiment: Cytotoxicity against mouse Adriamycin-resistant P388 cells. The class given is functional, cell-based.
Assay [5] concerns CHO. Description: Cytotoxicity against CHO cells. The class given is cell-based, Cavia porcellus. Conditions: Cricetulus griseus.

Values after ≈ are worked out from the molar mass of the structure shown.

A word on the IC50: it is the midpoint of a concentration-inhibition curve. Low values mean greater potency in that assay, high ones weaker potency in that assay.

On to `COc1cccc2c1C(=O)c1c(O)c3c(c(O)c1C2=O)C[C@@](O)(C(=O)CO)C[C@@H]3O[C@H]1C[C@H](N)[C@H](O)[C@H](C)O1` [DOXORUBICIN], for which the IC50 was 0.09 µg/mL (≈ 0.166 µM) in assay [1]; 0.09 µg/mL (≈ 0.166 µM) in assay [2]; 0.11 µg/mL (≈ 0.202 µM) in assay [3]; 0.55 µg/mL (≈ 1.01 µM) in assay [4]; 0.01 µg/mL (≈ 0.0184 µM) in assay [5].
